Laboratory results published in patent US10513694B2, “Thienopyrrole compounds and uses thereof” (PROMEGA CORPORATION, priority 2015, dated 2019).
“Also recorded” adds a separate entry of the source.

Columns and labels:
[1] = test system: Beta-2 Adrenergic Receptor-Nluc (B2AR-Nluc) fusion protein; test: Cell permeability, B2AR-Nluc in HEK293 or HeLa cells -/+ digitonin; assay type: cell-based
Description: HEK293 or HeLa cells were transiently transfected with Beta-2 Adrenergic Receptor-Nluc (B2AR-Nluc) fusion protein to anchor and orient Nluc cytosolically. 24 hrs post-transfection, cells were treated with −/+50 μg/mL digitonin to emulate a live and lytic scenario, respectively. Then, intact cells and permeabilized cells were exposed to a compound response curve of thienopyrrole compound up to 2 hrs. 10 μM furimazine (Promega Corp.) was added, and luminescence was measured. If a thienopyrrole compound (inhibitor) was permeable, the dose-response curves for both live and permeabilized cells overlapped. However, if a thienopyrrole compound was impermeable, the EC50 was right-shifted in the live cells relative to the permeabilized cells.

[2] = test system: Nluc-HALOTAG labeled with NANOBRET 618 ligand; test: Inhibition of extracellular BRET; assay type: cell-based; conditions: HEK293 Nluc-HDAC6; 10 ng/mL extracellular Nluc-HALOTAG/NANOBRET 618; 2 hrs
Description: HEK293 were transiently transfected with an Nluc-HDAC6 fusion protein to orient Nluc-HDAC6 inside the cell. 24 hrs post-transfection, cells were treated 10 ng/mL purified Nluc-HALOTAG labeled with NANOBRET 618 ligand to simulate spurious extracellular BRET. Cells were then exposed to a compound response curve of the thienopyrrole compounds, JRW-0013, JRW-0051, JRW-0147, and JRW-0187, for 2 hrs. 10 μM furimazine was then added, and BRET ratio 610/450 nm was measured.

[3] = target: T1, purified Nluc (extracellular); Nluc-HALOTAG fusion protein (intracellular) (Oplophorus gracilirostris, UniProt Q9GV45, A31E/A60N/A81I/F95D/I117V/K70R/L54V/L99Q/M102K/N193R/P142E/Q151K/Q38R/Q45L/V71I/Y165I); test: Inhibition of extracellular luciferase activity and enhancement of intracellular BRET; assay type: cell-based; conditions: HEK293 Nluc-HALOTAG + NANOBRET 618; 10 ng/mL extracellular purified Nluc; 2 hrs
T1 construct: expressed in transfected cells; host or cells: HEK293 (Nluc-HaloTag); purified Nluc added from outside
Description: HEK293 were transiently transfected with Nluc-HALOTAG fusion protein to orient Nluc-HALOTAG inside the cell. 24 hrs post-transfection, cells were labeled with NANOBRET 618 ligand to simulate specific intracellular BRET. Cells were then treated 10 ng/mL purified Nluc to simulate spurious extracellular luminescence. Cells were exposed to a compound response curve of the thienopyrrole compounds, JRW-0013, JRW-0051, JRW-0147, and JRW-0187, for 2 hrs. 10 μM furimazine was added, and the BRET ratio 610/450 nm was measured.

NANOLUC® enzyme = NANOLUC® enzyme (Oplophorus gracilirostris, UniProt Q9GV45, A31E/A60N/A81I/F95D/I117V/K70R/L54V/L99Q/M102K/N193R/P142E/Q151K/Q38R/Q45L/V71I/Y165I); test: Inhibitor IC50 determination (NANOLUC enzyme, furimazine); assay type: biochemical; conditions: IC50 (uM), 0.4 ng/ml NANOLUC enzyme, final furimazine 10 uM (at Km)
Nluc luciferase = Nluc luciferase (Oplophorus gracilirostris, UniProt Q9GV45, A31E/A60N/A81I/F95D/I117V/K70R/L54V/L99Q/M102K/N193R/P142E/Q151K/Q38R/Q45L/V71I/Y165I); test: Inhibition of purified Nluc, dose and time dependence; assay type: biochemical; conditions: pro-substrate PBI-4442, DTT, TERGITOL, RT, various time points
Description: A solution of purified Nluc and an Nluc pro-substrate (PBI-4442, which is described in US 2013/0130289), which is converted to an Nluc substrate upon reduction with DTT, were prepared in PBS buffer, pH 7.5. A 40 mM solution of DTT in PBS, pH 7.5 containing 1% TERGITOL was also prepared. Titrations of the thienopyrrole compounds JRW-0004, WZ141-88, WZ141-86, WZ141-74, WZ141-84, WZ141-89, WZ141-90, and WZ141-91 in the buffer containing DTT and TERGITOL were then prepared. An equal volume of the Nluc/pro-substrate solution was added to the thienopyrrole compound titrations in wells of an assay plate. The reactions were incubated at RT, and luminescence was measured at various time points on the Tecan M100 Pro plate reader (integration time 200 ms). IC50 values were determined using GraphPad Prism 6.03.

purified Nluc enzyme = target: T2, purified Nluc enzyme (Oplophorus gracilirostris, UniProt Q9GV45, A31E/A60N/A81I/F95D/I117V/K70R/L54V/L99Q/M102K/N193R/P142E/Q151K/Q38R/Q45L/V71I/Y165I); assay type: biochemical; conditions: titration up to 100 μM final; RT 2 hrs; pro-substrate PBI-4442 + DTT
T2 construct: purchased Promega Corporation
Description: In a Corning 3570 assay plate, purified Nluc enzyme (Promega Corporation), 20 mM DTT, and an Nluc pro-substrate (PBI-4442, which is described in US Patent Publication No. 2013/0130289), which is converted to an Nluc substrate upon reduction with DTT, was added. Compound titrations of JRW-0004, JRW-0013, JRW-0006, JRW-0042, JRW-0138, and JRW-0147 were then made (1:2 serial dilution in PBS, 11 points plus no inhibitor control, starting at 200 μM; 100 μM final concentration in reaction). Compound titrations were added in equal volume to the wells of the assay plate. The reactions were incubated at RT for 2 hrs, and luminescence was measured on Tecan M1000 Pro plate reader. Half-maximal inhibitor (thienopyrrole compound) concentrations (IC50s) were determined using GraphPad Prism 6.03.

[4] = test system: firefly luciferase, e.g., ULTRAGLO® luciferase; test: Specificity of inhibition: firefly luciferase activity; assay type: biochemical; conditions: 1 μM luciferin in Luciferase Detection Reagent; RT 2 hrs
Description: The following example describes the specificity of disclosed thienopyrrole compounds, JRW-0004, JRW-0013, JRW-0006, JRW-0042, JRW-0138, and JRW-0147, to inhibit Nluc luciferase activity versus firefly luciferase activity, e.g., ULTRAGLO® luciferase. In a Corning 3570 assay plate, a solution containing 1 μM luciferin in Luciferase Detection Reagent (Promega Corporation V865/859) was added to the assay wells. An equal volume of titrations the thienopyrrole compounds, JRW-0004, JRW-0013, JRW-0006, JRW-0042, JRW-0138, and JRW-0147 were then added to the wells. The reactions were incubated at RT for 2 hrs, and luminescence was measured on Tecan M1000 Pro plate reader.

[5] = test system: B2AR-Nluc or Nluc-B2AR fusion protein; test: Cell permeability with bioluminescent imaging (HeLa, B2AR-Nluc / Nluc-B2AR); assay type: cell-based; conditions: 30 μM compound, 10 μM furimazine
Description: HeLa cells were transiently transfected with Beta-2 Adrenergic Receptor-Nluc (B2AR-Nluc; C-Terminus Nluc) or Nluc-Beta-2 Adrenergic Receptor (Nluc-B2AR; N-terminus Nluc) fusion protein to anchor and orient Nluc intracellularly or extracellularly, respectively. 24 hrs post-transfection, cells were treated with −/+30 μM of a thienopyrrole compound, JRW-0147, JRW-0051, and JRW-0138. 10 μM furimazine was added, and luminescence was detected by imaging on the Olympus LV200.

Nluc enzyme = test: Multiplex RealTime-Glo / Caspase-Glo 3/7 in MCF7 cells; assay type: cell-based
Description: (§1) A) In a Corning 3570 assay plate, MCF7 cells were plated at 1,000 cells/well in 20 μL of cell culture media (EMEM supplemented with 0.01 mg/mL human recombinant insulin and 10% fetal bovine serum) and incubated in overnight. 10 μL of 4× REALTIME-GLO™ MT Cell Viability reagents (Promega Corporation) in media or 10 μL media only was added to the cells. 10 μL of 40 μM staurosporine in media or 10 μL media only (control) was added to the cells. The cells were incubated, and caspase activation monitored at 5.5 hrs post-reagent addition. To monitor caspase activation, 40 μL CASPASE-GLO® 3/7 Assay Reagent (Promega Corporation), either on its own (Caspase) or with 200 μM of JRW-0004, JRW-0013, or JRW-0042, was added. Reactions were incubated at RT, and luminescence was measured at 1 hr 10 min post-reagent addition on Tecan M1000 Pro plate reader.
(§2) When comparing the signal generated from the CASPASE-GLO® reagent in media only versus the signal generated in media containing REALTIME-GLO™ reagent, the signal is higher in the multiplex reaction.

Nluc = Nluc (Oplophorus gracilirostris, UniProt Q9GV45, A31E/A60N/A81I/F95D/I117V/K70R/L54V/L99Q/M102K/N193R/P142E/Q151K/Q38R/Q45L/V71I/Y165I); test: as above; assay type: cell-based; design: purchased Promega Corporation
Description: as §1, §2

[6] = 10 μM Stauro vs Control, 200 μM compound
[7] = CASPASE-GLO 3/7 reagent with 200 μM compound, 1 hr 10 min

T2 sequence (Q9GV45 28-196 with tags or gaps with the stated changes limits assumed): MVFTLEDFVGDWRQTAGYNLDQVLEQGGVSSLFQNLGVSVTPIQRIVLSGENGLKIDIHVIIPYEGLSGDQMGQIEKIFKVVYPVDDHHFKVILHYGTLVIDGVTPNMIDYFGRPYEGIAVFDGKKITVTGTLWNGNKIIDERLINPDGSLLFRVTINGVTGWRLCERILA
NANOLUC® enzyme, sequence (Q9GV45 28-196 with tags or gaps with the stated changes limits assumed): as above
Nluc luciferase, sequence (Q9GV45 28-196 with tags or gaps with the stated changes limits assumed): as above
Nluc, sequence (Q9GV45 28-196 with tags or gaps with the stated changes limits assumed): as above
T1 sequence (Q9GV45 28-196 with tags or gaps with the stated changes limits assumed): as above

SMILES | IC50 (NANOLUC® enzyme) | Inhibition of Nluc luciferase, dose and time dependence (FIGS. 4-6) (Nluc luciferase) | Inhibition of purified Nluc enzyme (FIG. 2) (purified Nluc enzyme) | Inhibition of firefly luciferase activity (FIG. 3) [4] | other results
CCN(C(=O)Cn1c(C(=O)N[C@H]2CC[C@H](C(=O)N3CCC(C(=O)O)CC3)CC2)cc2sccc21)c1cccc(C)c1 [JRW-0187, 1-(trans-4-(4-(2-(ethyl(m-tolyl)amino)-2-oxoethyl)-4H-thieno[3,2-b]pyrrole-5-carboxamido)cyclohexane-1-carbonyl)piperidine-4-carboxylic acid] |  |  |  |  | Cell permeability [1]: cell-impermeable; BRET ratio 610/450 nm across compound dose-response curve (FIGS. 12B-12E) [2]: BRET ratio decreased; BRET ratio 610/450 nm across compound dose-response curve (FIGS. 13B-13E) [3]: intracellular BRET ratio was enhanced
CCN(C(=O)Cn1c(C(=O)O)cc2sccc21)c1cccc(C)c1 [WZ-141-74, 4-(2-(ethyl(m-tolyl)amino)-2-oxoethyl)-4H-thieno[3,2-b]pyrrole-5-carboxylic acid] | 16.4 µM | inhibit Nluc luciferase in a dose- and time-dependent manner |  |  | 
CCN(C(=O)Cn1c(C(=O)NC2CCCC2)cc2sccc21)c1cccc(C)c1 [WZ-141-88, N-cyclopentyl-4-(2-(ethyl(m-tolyl)amino)-2-oxoethyl)-4H-thieno[3,2-b]pyrrole-5-carboxamide] | 0.54 µM | inhibit Nluc luciferase in a dose- and time-dependent manner |  |  | 
CCN(C(=O)Cn1c(C(=O)NC)cc2sccc21)c1cccc(C)c1 [WZ-141-84, 4-(2-(ethyl(m-tolyl)amino)-2-oxoethyl)-N-methyl-4H-thieno[3,2-b]pyrrole-5-carboxamide] | 5.5 µM | inhibit Nluc luciferase in a dose- and time-dependent manner |  |  | 
CCN(C(=O)Cn1c(C(=O)NC2CCCCC2)cc2sccc21)c1cccc(C)c1 [JRW-0006, N-cyclohexyl-4-(2-(ethyl(m-tolyl)amino)-2-oxoethyl)-4H-thieno[3,2-b]pyrrole-5-carboxamide] | 0.26 µM |  | capable of inhibiting purified Nluc enzyme | do not inhibit firefly luciferase activity; also recorded: did not inhibit the firefly luciferase activity | 
CCCCCCNC(=O)[C@H]1CC[C@H](NC(=O)c2cc3sccc3n2CC(=O)N(CC)c2cccc(C)c2)CC1 [JRW-0138, 4-(2-(ethyl(m-tolyl)amino)-2-oxoethyl)-N-(trans-4-(hexylcarbamoyl)cyclohexyl)-4H-thieno[3,2-b]pyrrole-5-carboxamide] | 0.13 µM |  | capable of inhibiting purified Nluc enzyme | do not inhibit firefly luciferase activity; also recorded: did not inhibit the firefly luciferase activity | Permeability and inhibition of extracellular / intracellular Nluc by imaging (FIG. 14) [5]: cell permeable and inhibited both intracellular and extracellular Nluc; Cell permeability [1]: cell-permeable
CCN(C(=O)Cn1c(C(=O)N2CCN(C)CC2)cc2sccc21)c1cccc(C)c1 [WZ-141-91, N-ethyl-2-(5-(4-methylpiperazine-1-carbonyl)-4H-thieno[3,2-b]pyrrol-4-yl)-N-(m-tolyl)acetamide] |  | inhibit Nluc luciferase in a dose- and time-dependent manner |  |  | 
CCCCNC(=O)[C@H]1CC[C@H](NC(=O)c2cc3sccc3n2CC(=O)N(CC)c2cccc(C)c2)CC1 [JRW-0042, N-(trans-4-(butylcarbamoyl)cyclohexyl)-4-(2-(ethyl(m-tolyl)amino)-2-oxoethyl)-4H-thieno[3,2-b]pyrrole-5-carboxamide] | 0.31 µM |  | capable of inhibiting purified Nluc enzyme | do not inhibit firefly luciferase activity; also recorded: did not inhibit the firefly luciferase activity | Fold Cont, Media only (Nluc enzyme; [6]): 5.81; Avg (luminescence), Media only, 10 μM Stauro (Nluc enzyme; [7]): 62280; Avg (luminescence), Media only, Control (Nluc enzyme; [7]): 10718; Fold Cont, Media containing RealTime-Glo (Nluc; [6]): 5.05; Avg (luminescence), Media containing RealTime-Glo, 10 μM Stauro (Nluc; [7]): 53956; Avg (luminescence), Media containing RealTime-Glo, Control (Nluc; [7]): 10679
